Experimental data published in patent US11197862B2, “Methods of preventing toxicity of platinum drugs” (XOMICS BIOPHARMA, INC., priority 2015, dated 2021).
Values joined by “and” are separate entries in the source; they are usually repeats but may differ in a detail not shown here. Equal values may be shown once. “Also recorded” adds a separate entry of the source.

Experiments:
[1] = Dolutegravir plasma concentration in Balb/C mice after PO, IV and IP administration; type: in vivo, mouse; conditions: 10 mg/kg PO, 4 mg/kg IV, 4 mg/kg IP
Method: Male mice of 6-7 weeks of age were obtained from Charles River and allowed to acclimate for 3-5 days. The mice were weighed and individually identified (tail marked). The mice (n=3) in the oral (PO) group were fasted overnight and orally gavaged with 10 mg/kg of Dolutegravir. The second group of mice (n=3) were intravenously (IV) injected with 4 mg/kg of Dolutegravir. The third group of mice (n=3) were intraperitoneally (IP) injected with 4 mg/kg of Dolutegravir. At 10 min, 0.5 h, 1 h post dosing. ˜120 μl of blood sample was collected from the IV and IP mice by orbital venous sinus bleeding. At 1 h, 2 h, 4 h post dosing, ˜120 μl of blood sample was collected from the PO mice by orbital venous sinus bleeding. […] For analysis, the plasma samples were diluted into the calibration range as needed. […] The calibration curve was extracted in the same way as the unknown samples. The final extracts were analyzed by LC-MS/MS using positive electrospray ionizations under the multiple-reaction-monitoring (MRM) mode for the detection of Dolutegravir. The standard curve fitted by linear regression was used to quantify the analyte in the matrix using Analyst 1.6.2 software (AB Sciex).

[2] = tested on: Balb/c mice exposed to chronic treatment with Oxaliplatin; experiment: Morphometry and histopathology of DRG neurons in chronic oxaliplatin neuropathy model; type: in vivo, mouse; conditions: for area of DRG neuron cell bodies and nucleoli (morphometry): OXA 3.5 mg/kg iv twice a week for 4 weeks (8 cycles) ± BFMD 30 mg/kg ip + 15 mg/kg iv
Excerpt: The investigator was blind to the nerve and DRG conditions for these analyses. Three animals from each group were sacrificed four days after the last oxaliplatin dose. The left sciatic nerves and the L4-L5 DRGs were harvested and processed following previously reported protocols, resin embedded and sectioned for light and electron microscope analysis. For the light microscopy analysis, 1 μm semithin sections were stained with toluidine blue and examined using a Nikon Eclipse E200 light microscope (Nikon, Firenze, Italy). For the electron microscopy analysis, ultrathin sections (80 nm) counterstained with uranyl acetate and lead citrate, were examined with a Philips CM 10 transmission electron microscope (Philips, Eindhoven, Netherlands).
The investigator was blind to the experimental conditions of the tissue for these experiments. One micron thick semithin sections stained with toluidine blue were used for morphometric examination of the DRGs from control (n=3) and oxaliplatin-treated mice (n=3). (Renn et al. Molecular Pain 2011, 7:29). Only the cells where the nucleolus was included in the section plane of 50 μm-spaced out sections were considered to avoid the overlapping of the same cell bodies and they were analyzed with computer-assisted image analysis (ImageJ, NIH) to measure the soma and nucleolus size of at least 300 DRG neurons per mouse.

HepG2 cells = experiment: Anti-proliferation study (SRB assay) in HepG2 cells; conditions: FIG. 10
Method: The potency was determined by the sulforhodamine B (SRB) assay in 96-well plates. […] Seeding density was 3000 cells/well for both cell lines.

[3] = tested on: MDCK cells expressing OCT2, MATE1 and MATE2K; experiment: LDH cytotoxicity of cisplatin in MDCK-II triple-transporter model; type: cell-based, canine; conditions: 6 μM buflomedil; 1 mM cisplatin; FIG. 7
Method: A triple-transporter model for OCT2(SLC22A2), MATE1(SLC47A1), and MATE2-K(SLC47A2) was created by transfecting fully confluent MDCK-II cell monolayers with DNA mixture containing the plasmids encoding OCT2, MATE1, and MATE-2K at concentrations of 40, 15, and 5 ng/μl, respectively. […] This systems were cultured in complete medium consisting of Dulbecco's modified Eagle's medium without phenyl-red with 10% fetal bovine serum in an atmosphere of 5% CO2-95% air at 37° C. The apical medium was adjusted to pH 6.7 with 25 mM of 2-(N-morpholino) ethanesulfonic acid (MES).
Dolutegravir was tested at 10 μM. […] Cytotoxicity was tested using the same procedure described above.

[4] = cited from earlier work
[5] = Buflomedil plasma concentration in Balb/C mice after IV and IP administration; type: in vivo; conditions: male, mouse
Method: Male mice of 7-8 weeks of age were allowed to acclimate for 6 days. […] Blood was collected at 0.083, 0.5, and 1 hour into Heparin tubes. The plasma was obtained through centrifugation of the blood at 4000 rpm at 4° C.
For plasma sample analysis, the samples were thawed and mixed well before 20 µL aliquots were processed using protein precipitation by internal standard (Verapamil) containing organic solution, methanol: acetonitrile 5:95 (v/v). After vigorous vortexing and refrigerated centrifugation at 4000 rpm, 50 μL of the extract from each sample was reconstituted with 70 μL of 0.1% formic acid in water. […] The calibration curve was extracted in the same way as the plasma samples. The final extracts were analyzed by LC-MS/MS using positive electrospray ionizations under the multiple-reaction-monitoring (MRM) mode for the detection of buflomedil. The standard curve fitted by linear regression was used to quantify the analyte in the matrix using Analyst 1.5.2 software (AB Sciex) Results

[6] = tested on: Balb/c mice exposed to chronic treatment with Oxaliplatin; experiment: Dynamic Plantar Aesthesiometer Test in chronic oxaliplatin neuropathy model; type: in vivo, mouse; conditions: for mechanical allodynia, Dynamic Aesthesiometer Test at the end of treatment: OXA 3.5 mg/kg iv, 8 cycles ± BFMD 30 mg/kg ip + 15 mg/kg iv
Method: The Dynamic Plantar Aesthesiometer Test was used to determine the alterations in mechanical pain perception and their changes due to pharmacological treatment. Mice were accustomed to the device 3 days before performing the tests after a 1 hour acclimatization period followed by testing. The mechanical nociceptive threshold was assessed using a Dynamic Aesthesiometer Test (model 37450, Ugo Basile Biological Instruments, Comerio. Italy), which generated a linearly increasing mechanical force. At each time point, after the acclimatization period, a servo-controlled mechanical stimulus (a pointed metallic filament, 0.5-mm diameter) was applied to the plantar surface of the hind paw, which exerted a progressively increasing punctuate pressure, reaching up to 15 g within 15 seconds. The pressure evoking a clear voluntary hind-paw withdrawal response was recorded automatically and taken as representing the mechanical nociceptive threshold index. The mechanical threshold was always assessed alternatively on each side every 2 minutes on 3 occasions to yield a mean value. The results represent the maximal pressure (expressed in grams) tolerated by the animals. There was an upper limit cutoff of 30 seconds, after which the mechanical stimulus was automatically terminated.

[7] = Mortality, clinical observations and body weight in the chronic model; type: in vivo, mouse; conditions: BFMD 30 mg/kg ip + 15 mg/kg iv ± OXA 3.5 mg/kg iv, twice a week for 4 weeks; n=12/group
[8] = Plasma levels of buflomedil and oxaliplatin in the chronic model; type: in vivo, mouse; conditions: 15 minutes after the 8th cycle
Method: At baseline (before drug treatment) and at the end of treatment, caudal nerve conduction study (NCS), behavioral tests (Dynamic and Cold Plate), histopathology study were performed. Serum samples were collected at the end of treatment.

SMILES	effect of route of administration on plasma exposure [1]	area of DRG neuron cell bodies and nucleoli (morphometry) ([2]; listed as BFMD)	area of DRG neuron cell bodies and nucleoli (morphometry) ([2]; listed as buflomedil)	DRG histopathology (light and electron microscopy) ([2]; OXA 3.5 mg/kg iv, 8 cycles ± BFMD 30 mg/kg ip + 15 mg/kg iv)	effect on anti-tumor potency of oxaliplatin in HepG2 (HepG2 cells)	effect on cisplatin cytotoxicity [3]	plasma level associated with serious toxicities ([4]; European Medicines Agency 2012, Bourguignon 2012)	MTC (maximum tolerable concentration) ([4]; plasma)	concentration at 10 min ([5]; Balb/C, other: IV/IP (intravenous group and intraperitoneal groups), 10 mg/kg IV, 20 or 40 mg/kg IP, each group)	bioavailability ([5]; ip, Balb/C mice, read-out: estimated bioavailability of IP administration)	mechanical allodynia, Dynamic Aesthesiometer Test at the end of treatment ([6]; listed as BFMD)	mechanical allodynia, Dynamic Aesthesiometer Test at the end of treatment ([6]; listed as buflomedil)	mechanical allodynia (mechanical pain threshold) ([6]; buflomedil 80 mg/kg po 2 hours before OXA, 8 cycles, n=3/group)	mortality [7]	pharmacokinetic interaction between BFMD and OXA (plasma levels) [8]	plasma level at the end of the study ([8]; BFMD 30 mg/kg ip + 15 mg/kg iv)
C[C@@H]1CCO[C@H]2Cn3cc(C(=O)NCc4ccc(F)cc4F)c(=O)c(O)c3C(=O)N12 [Dolutegravir]	route of administration significantly affected dolutegravir plasma exposure	–	–	–	–	–	–	–	–	–	–	–	–	–	–	–
COc1cc(OC)c(C(=O)CCCN2CCCC2)c(OC)c1 [Buflomedil, 4-pyrrolidin-1-yl-1-(2,4,6-trimethoxyphenyl)butan-1-one]	–	nearly completely prevented OXA's induced DRG neuronal injury; also recorded: no difference from the CTRL group	effective on preventing dorsal root ganglion (DRG) nerve cell injury	look clearly similar to the control	not buflomedil	significantly reduced cytotoxicity from 1 mM of cisplatin	above 10 mg/I and > 32.5 uM	10 mg/I	> 2000 ng/mL	40 to 60%	only the groups treated with OXA alone showed the development of mechanical allodynia	effective on preventing mechanical allodynia	effective on reducing mechanical (FIG. 30A) and cold (FIG. 30B) allodynia; also recorded: showed protective effects against OXAIPN	Two animals (BFMD and OXA+BFMD groups) died after the first administration; also recorded: one animal (OXA+BFMD group) died after the last administration	No pharmacokinetic interaction was observed	> 1720 ng/mL
